For one data set, the target named is T1, CB1 receptors (Rattus norvegicus, UniProt P20272).
T1 construct: cerebellar membranes (400 μg wet weight per tube) were thoroughly mixed in a final volume of 0.5 mL; from tissue; host or cells: rat cerebellum (Male Wistar rats), membrane homogenate
T1 sequence (P20272 whole entry): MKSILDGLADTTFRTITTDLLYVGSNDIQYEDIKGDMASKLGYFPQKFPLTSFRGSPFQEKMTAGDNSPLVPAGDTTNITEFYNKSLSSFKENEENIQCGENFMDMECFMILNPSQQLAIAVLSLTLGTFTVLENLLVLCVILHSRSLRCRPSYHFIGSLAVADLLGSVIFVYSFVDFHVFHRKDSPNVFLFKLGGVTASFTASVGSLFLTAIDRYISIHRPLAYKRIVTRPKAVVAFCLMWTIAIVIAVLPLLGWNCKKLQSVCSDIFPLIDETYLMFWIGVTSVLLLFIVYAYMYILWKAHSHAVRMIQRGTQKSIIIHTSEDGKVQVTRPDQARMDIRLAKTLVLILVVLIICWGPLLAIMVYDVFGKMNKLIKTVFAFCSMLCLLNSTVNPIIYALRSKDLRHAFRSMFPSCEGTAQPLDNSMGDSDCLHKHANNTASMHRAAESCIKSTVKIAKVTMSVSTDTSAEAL
Put plainly: Radioligand binding assay: displacement of [3H]SR141716A from rat cerebellar homogenates.
Conditions: not given
On the procedure: SR141716A from rat cerebellar homogenates. […] (M).
Radioligand binding assays provide a simple measure of activity at the CB1 receptors. For functional activity, the vas deferens or cyclic 3′,5′-adenosine monophosphate (cAMP) assays described below are used. The assays are carried out with a protocol modified from the literature using the CB1 receptor antagonist [^3H] SR141716A (0.5 nM) in rat brain membranes. Male Wistar rats (150-200 g), which were allowed free access to food and water, were used. Briefly, animals were killed by cervical dislocation and cerebella dissected into ice-cold 0.25 M sucrose. Homogenates were prepared by suspension of cerebella in ice-cold 50 mM, pH 7.4 HEPES (assay) buffer using an Ultra-Turrax™ homogeniser. Homogenates were subsequently centrifuged at 45,000 rpm for 15 min at 4° C., and re-suspended in fresh ice-cold assay buffer to give a final concentration of 1 mg/mL wet weight. Compounds under test were dissolved in dimethyl sulfoxide (DMSO) and transferred to 14 mL polypropylene test tubes. [^3H] SR141617A {final concentration of approximately 0.5 nM prepared in assay buffer containing 0.1% v/v tris(2-butoxyethyl)phosphate} and cerebellar membranes (400 μg wet weight per tube) were thoroughly mixed in a final volume of 0.5 mL and incubated for 1 h at 37° C. The tubes were transferred to a Brandel filtration apparatus, 5 mL ice-cold assay buffer added, and the tube contents vacuum-aspirated through Whatman GF/C glass fibre filters. A further 5 mL of ice-cold wash buffer was added to tubes and the wash/vacuum cycle repeated a further three times. The filters were transferred to plastic Mini-PolyQ™ vials, Picofluor™ liquid scintillant added, and radioactivity (dpm) was quantified using a Beckman LS6000 Liquid Scintillation Counter. The concentrations of competing ligand (test compounds) to produce 50% displacement of the radioligand (IC50) from specific binding sites were computed using Origin™, by fitting total bound ligand (y-axis as dpm) against compound concentration (x-axis, log 10[x] as M) to the logistic equation y=a+b/[1+exp{−c(x−IC50)}]. Where a=lower asymptote, b=specific bound and c=slope function.
(Loss of bound radioactivity is the signal in a displacement assay; it reports binding, not function.)
For orientation: IC50 means the concentration that gives 50% inhibition. Take `CCCCCCC(C)(C)c1ccc(-c2cc(Cl)cc(Cl)c2)c(O)c1` [VSN28, 3′,5′-Dichloro-4-(1,1-dimethylheptyl)-1,1′-biphenyl-2-ol]: the IC50 was found to be 2200 nM. Still for that read-out and setting: next, `CCCCCCC(C)(C)c1ccc(-c2cccc(NC(C)=O)c2)c(O)c1` [VSN30, N-[4′-(1,1-dimethylheptyl)-2′-hydroxy-1,1′-biphenyl-3-yl]-acetamide]: 24600 nM. As to `CCCCCCC(C)(C)c1ccc(-c2cccc(CO)c2)c(O)c1` [VSN31, 4-(1,1-Dimethylheptyl)-3′-(hydroxymethyl)-1,1′-biphenyl-2-ol], the IC50 worked out at 1600 nM.

As to `CCCCCCC(C)(C)c1ccc(-c2cc(C)cc(C)c2)c(O)c1` [VSN29, 3′,5′-Dimethyl-4-(1,1-dimethylheptyl)-1,1′-biphenyl-2-ol], the IC50 is 200 nM. Still for that read-out and setting: next, `CCCCCCC(C)(C)c1ccc(-c2cccc(O)c2)c(O)c1` [VSN13, 4-(1,1-Dimethylheptyl)-1,1′-biphenyl-2,3′-diol]: 1500 nM; `CCCCCCC(C)(C)c1ccc(-c2ccncc2)c(O)c1` [VSN27, 5-(1,1-Dimethylheptyl)-2-pyridin-4-yl phenol]: 1600 nM.

In turn, `CCCCCCC(C)(C)c1ccc(-c2cccnc2)c(O)c1` [VSN26, 5-(1,1-Dimethylheptyl)-2-pyridin-3-yl phenol] registered an IC50 of 3600 nM.

The same data set, now with this note: displacement of [3H]SR141716A (0.5 nM), rat cerebellar membranes; read-out: IC50.
For `CN(C)C(=O)CCCCC(C)(C)c1ccc(-c2cccc(O)c2)c(O)c1` [VSN32], the IC50 was determined as 500 nM.

In a further data set the target is T2, central CB1 receptors (Mus musculus, UniProt P47746).
T2 construct: from tissue; host or cells: whole animal (normal mice), CNS
T2 sequence (P47746 whole entry): as the sequence (P20272 whole entry) above, with E95D counted along it
Put plainly: Psychotropic activity: adverse cannabimimetic (tetrad) effects in mice. Particulars: in vivo, FIG. 6 legend. On the procedure:
Many CB1 agonists are known to induce psychotropic associated “tetrad effects” due to central binding to CB receptors [Howlett, A. C. et al, International Union of Pharmacology. XXVII, Pharmacol. Rev. 2002, 54, 161-202]. Studies were undertaken to investigate whether the compounds of the present invention also bound to central CB1 receptors. This is assessed by measuring the ability of the compounds to induce sedation, ptosis, hypomotility, catalepsy and hypothermia in normal mice [Brooks, J. W. et al, Eur. J. Pharmacol. 2002, 439, 83-92], following i.v., i.p. and oral administration.
For the compound `CCCCCCC(C)(C)c1ccc(-c2cccc(O)c2)c(O)c1` [VSN13, 4-(1,1-Dimethylheptyl)-1,1′-biphenyl-2,3′-diol], the adverse cannabimimetic effects entry is “does not exhibit adverse cannabimimetic effects”.

The values are drawn from US20080262011A1, “Modulator” (priority 2004, published 2008).
